Data: US8901345B2, “Process for preparation of optically active diamine derivative salt” (Daiichi Sankyo Company, Limited, priority 2010, dated 2014)
“Also recorded” adds a separate entry of the source. Structures can show the parent of a compound that is named as a salt.

How the values were obtained:
Type in all cases: physicochemical
[1] = Comparison of water solubility of crystals in hydrous toluene/acetonitrile; conditions: compared with monohydrate crystals of (1b) in the cis-form; water added to a 13% toluene/acetonitrile solution to change percentage water content
Protocol: Water was added to a 13% toluene/acetonitrile solution to change the percentage water content to compare water solubility between the monohydrate crystals of the compound represented by formula (1b) and the monohydrate crystals of the trans-isomer compound represented by formula (1b-trans).

[2] = Crystal form transformation (solid form stability) of crystal polymorphs; conditions: for transformation of anhydrous crystals to monohydrate crystals: stirring at 25° C., depending on the percentage water content of the mother liquor, oxalate
Protocol: The Form 2 anhydrous crystals were also found to be excellent in operability such as filtration performance. Powder x-ray diffraction diagrams of the Form 1 and Form 2 anhydrous crystals of compound (1) are shown in FIGS. 1 and 2, respectively, and their diffraction diagrams based on thermal analysis are shown in FIGS. 5 and 6, respectively.
Compound (1a) was treated with anhydrous oxalic acid in 6% hydrous acetonitrile to obtain two crystal polymorphs of monohydrate crystals of the title compound represented by formula (1b) (this production method is described in Example 3 below). Powder x-ray diffraction diagrams of the Form 1 and Form 2 monohydrate crystals are shown in FIGS. 3 and 4, respectively, and their diffraction diagrams based on thermal analysis are shown in FIGS. 7 and 8, respectively.

[3] = Hygroscopicity of crystal polymorphs; conditions: among the crystal polymorphs of anhydrous crystals of compound (1)

Question: Which water solubility [1] does the source give for `CN(C)C(=O)[C@H]1CC[C@@H](N)[C@H](NC(=O)OC(C)(C)C)C1` [(1b-trans)] here?
Answer: Its water solubility is “highly water-soluble; also recorded: more water-soluble”.

Question: For `CN(C)C(=O)[C@H]1CC[C@H](N)[C@H](NC(=O)OC(C)(C)C)C1` [Form 1 anhydrous crystals, tert-butyl {(1R,2S,5S)-2-amino-5-[(dimethylamino)carbonyl]cyclohexyl}carbamate oxalate], which “transformation of anhydrous crystals to monohydrate crystals” value [2] is on record?
Answer: Its value is “transformed to monohydrate crystals”.

Question: Which “crystal transformation when left standing” value ([2]; left at room temperature for approximately 2 hours) does the source give for `CN(C)C(=O)[C@H]1CC[C@H](N)[C@H](NC(=O)OC(C)(C)C)C1` [Form 1 monohydrate crystals, tert-butyl {(1R,2S,5S)-2-amino-5-[(dimethylamino)carbonyl]cyclohexyl}carbamate oxalate monohydrate] here?
Answer: Its value is “transformed to Form 2 monohydrate crystals”.

Question: What does the source list for `CN(C)C(=O)[C@H]1CC[C@H](N)[C@H](NC(=O)OC(C)(C)C)C1` [Form 2 anhydrous crystals, tert-butyl {(1R,2S,5S)-2-amino-5-[(dimethylamino)carbonyl]cyclohexyl}carbamate oxalate]?
Answer: hygroscopicity [3]: much less hygroscopic; transformation of anhydrous crystals to monohydrate crystals [2]: hardly transformed to monohydrate crystals
